From PMC8316002, “Inhibition of Escherichia coli Lipoprotein Diacylglyceryl Transferase Is Insensitive to Resistance Caused by Deletion of Braun’s Lipoprotein” (Journal of Bacteriology, 2021)
Values after ≈ are worked out from the molar mass of the structure shown.

Columns and labels:
CFT073 Δlgt = test: MIC assay, CFT073 Δlgt, Lgt 0.25% Ara; type: cell-based, E. coli; settings: Escherichia coli
Description: (§1) Unless stated otherwise, E. coli cells were grown in Luria-Bertani (LB) medium (0.5% yeast extract, 1% tryptone, 0.5% NaCl) at 37°C. Where indicated, kanamycin (Kan) was added to culture media at a 50-μg/ml final concentration. MIC assays were performed based on Clinical and Laboratory Standards Institute (CLSI) guidelines. For in vitro growth curves, overnight cultures of WT CFT073, CFT073 Δlgt, and CFT073 Δlgt complemented with lgt from E. coli (lgt^Ec) or P. aeruginosa (lgt^Pa) were grown to mid-exponential phase (optical density at 600 nm [OD600] of 0.6) and then diluted to an OD600 of 0.1 to initiate growth curves. At various times, culture aliquots were diluted and plated in dilutions on LB+Kan agar, and CFU were enumerated in duplicates. Growth of MG1655 inducible deletion strains was measured by culturing in the presence of 2-fold dilutions of arabinose (starting arabinose concentrations for CFT073 and MG1655 inducible deletion strains were 4% and 0.8%, respectively). While […] was sufficient for WT growth of MG1655 Δlgt, 4% arabinose was used for CFT073 Δlgt based on comparing its growth to that of WT CFT073 as measured by CFU. OD600 growth measurements were performed using an EnVision 2101 multilabel reader plate reader (PerkinElmer) linked with Echo liquid handler (Labcyte). For time-kill experiments, bacteria were harvested in mid-exponential phase and treated with 12.5 μM G2824, 3.2 μM globomycin, and 1.6 μM vancomycin. CFU were enumerated at various times posttreatment. Bacterial culture medium containing 2% arabinose was used to induce lpp or lppΔK expression from pBad24 plasmids. Bacterial viability at different time points during the treatment was measured by enumerating CFU. Serum killing assays were carried out as previously described ([17]).

WT CFT073 = test: MIC assay, WT CFT073 (Table 1); type: cell-based, E. coli; settings: Escherichia coli, average of two independent experiments, each in duplicates, CLSI
Description: as §1

LspA = LspA inhibitor globomycin; cited from earlier work
Text: Using a combination of biochemical and genetic strategies, we believe the Lgt inhibitor G2824 identified in this study inhibits bacterial cell growth through inhibition of the diacylglyceryl transferase activity of Lgt. First, G2824 was identified using a specific Lgt binding assay and confirmed to inhibit Lgt enzymatic function in vitro. Second, the results generated from pharmacologic inhibition of Lgt by G2824 in both CFT073 and MG1655 E. coli strains are highly consistent with the genetic depletion of Lgt, strongly arguing against off-target effects as a main cause of G2824 bactericidal ac ...

BW25113 cells, lgt gRNA = test: CRISPRi knockdown sensitization, lgt gRNA; type: cell-based, E. coli; settings: 2 μM G2824, 0.05 μM globomycin or 0.016 μM ciprofloxacin; OD600 relative to untreated, versus scr or folA gRNA
Text: (§2) The two-plasmid bacterial CRISPRi system pdCas9-bacteria_GNE and PGNRNA-bacteria_GNE are based on the AddGene plasmids 44249 and 44251 ([73]), respectively. The plasmid was synthesized in smaller DNA fragments (500 bp to 3 kb) (IDT gBlocks) and assembled by Gibson assembly (NEB) according to the manufacturer’s protocols. Plasmids were confirmed by sequencing (ELIM Bio). gRNAs were designed to target the 5′ end of the gene on the nontemplate strand using Benchling CRISPR software ([74]). gRNAs were cloned into PGNRNA-bacteria using Gibson assembly (NEB) according to the manufacturer’s protocols and sequence confirmed (ELIM Bio).
(§3) Bacterial cultures were grown overnight on LB agar supplemented with carbenicillin (50 μg/ml) and chloramphenicol (12.5 μg/ml) to maintain both plasmids, pdCas9-bacteria and PGNRNA-bacteria with each gRNA as appropriate. Cells were scraped from the plate into fresh medium. The OD600 was measured, and the culture was subsequently diluted to an OD600 0.001 in the presence or absence of G2824, globomycin, or ciprofloxacin. Two hundred microliters was transferred to a 96-well plate (Corning) and monitored for growth by measuring the OD600 (EnVision multimode plate reader; PerkinElmer). All treatments were performed in triplicates. The specificity of CRISPRi downregulation was measured using reverse transcriptase quantitative PCR (RT-qPCR).

BW25113 cells, lspA gRNA = test: CRISPRi knockdown sensitization, lspA gRNA; type: cell-based, E. coli; settings: 2 μM G2824, 0.05 μM globomycin or 0.016 μM ciprofloxacin; OD600 relative to untreated, versus scr or folA gRNA
Text: as §2, §3

CFT073 imp4213 = test: Western blot of Lpp forms; type: cell-based, E. coli; settings: 0.5× MIC, 30 min
Description: Bacterial cell samples normalized for equivalent OD600 and resuspended in BugBuster lysis buffer (Fischer Scientific) with the addition of sample buffer (LI-COR), and proteins were separated by SDS-PAGE using 16% Tricine protein gels or NuPAGE 4% to 20% bis-Tris gels (Thermo Fisher Scientific), transferred to nitrocellulose membranes using the iBlot 2 dry blotting system (Invitrogen), and blocked using LI-COR blocking buffer for 30 min. Unless stated otherwise, loading buffer with reducing agents was added and samples were not boiled prior to SDS-PAGE. For the sucrose gradient centrifugation, samples were boiled prior to running the SDS-PAGE. Primary antibodies were used at a final concentration of 1 μg/ml with some exceptions: rabbit anti-Lpp polyclonal antibody (0.1 μg/ml), murine anti-Pal 6D7 antibody (0.5 μg/ml), rabbit anti-GroEL antibody (1:10,000 final dilution), and rabbit anti-OmpA antibody (1:50,000 final dilution). The secondary antibodies were all obtained from LI-COR and used as per manufacturer’s instructions. Images were collected using the Odyssey CLx imaging system (LI-COR) and analyzed by Image Studio Lite.

Row | SMILES | MIC (CFT073 Δlgt) [µM] | MIC (WT CFT073) [µM] | on-target resistance mutations (LspA) | sensitization by decreased lgt expression (BW25113 cells, lgt gRNA) | sensitization by decreased lspA expression (BW25113 cells, lspA gRNA) | accumulation of Lpp forms (CFT073 imp4213)
1 | CN[C@H](CC(C)C)C(=O)N[C@H]1C(=O)N[C@@H](CC(N)=O)C(=O)N[C@H]2C(=O)N[C@H]3C(=O)N[C@H](C(=O)N[C@H](C(=O)O)c4cc(O)cc(O)c4-c4cc3ccc4O)[C@H](O)c3ccc(c(Cl)c3)Oc3cc2cc(c3O[C@@H]2O[C@H](CO)[C@@H](O)[C@H](O)[C@H]2O[C@H]2C[C@](C)(N)[C@H](O)[C@H](C)O2)Oc2ccc(cc2Cl)[C@H]1O [Vancomycin] | 12.5 (≈ 18.1 µg/mL) | > 100 | – | – | – | –
2 | CCCCCC[C@H]1OC(=O)CNC(=O)[C@H]([C@H](C)O)NC(=O)[C@H](CO)NC(=O)[C@H]([C@H](C)CC)NC(=O)[C@H](CC(C)C)N(C)C(=O)[C@@H]1C [Globomycin] | – | – | no on-target resistance mutations have ever been identified | not globomycin | enhanced growth inhibition | accumulation of DGPLP and other PGN-linked Lpp forms
